Reference: patent US6872727B1, “Polycyclic pyrimidine -2,4(1H,3H)-diones with functionalized alkyl residues at the 1- and/or 3-position(s); methods for their synthesis and pharmaceutical preparation” (Privates Institut fur Biomedizinische Forschung und Beratung, priority 1999, dated 2005)

Key:
Assay type in all cases: biochemical
[1] = target: T1, human matrix metalloproteinase-2 (MMP-2; gelatinase A) (Homo sapiens, UniProt P08253); assay: Inhibition of human matrix metalloproteinase-2 (gelatinase A); conditions: trypsin-activated MMP-2 from human dermal fibroblast culture supernatant; read-out: MMP-2 (50% inhibition)
T1 construct: to prepare the enzymatically active mature form of the enzyme; endogenous in cells; host or cells: human dermal fibroblasts (secreted into culture supernatant)
T1 sequence (P08253 110-660): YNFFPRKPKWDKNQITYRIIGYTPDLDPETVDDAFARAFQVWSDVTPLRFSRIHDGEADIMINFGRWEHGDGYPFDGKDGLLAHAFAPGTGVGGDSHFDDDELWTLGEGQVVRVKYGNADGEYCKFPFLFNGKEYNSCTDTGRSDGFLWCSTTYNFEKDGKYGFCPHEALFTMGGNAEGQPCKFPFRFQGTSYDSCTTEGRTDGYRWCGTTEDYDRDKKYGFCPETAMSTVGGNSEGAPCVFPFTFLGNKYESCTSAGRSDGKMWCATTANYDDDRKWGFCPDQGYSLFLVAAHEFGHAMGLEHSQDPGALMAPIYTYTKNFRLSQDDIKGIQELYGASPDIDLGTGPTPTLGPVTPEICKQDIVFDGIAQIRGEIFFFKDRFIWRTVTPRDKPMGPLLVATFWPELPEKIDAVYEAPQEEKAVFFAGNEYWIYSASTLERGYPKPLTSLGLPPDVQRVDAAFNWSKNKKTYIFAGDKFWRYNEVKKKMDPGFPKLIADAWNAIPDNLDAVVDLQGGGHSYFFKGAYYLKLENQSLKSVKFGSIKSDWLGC
Description: MMP-2 is easily prepared by standard procedures from the culture medium of cultivated human fibroblasts in reasonable quantities, and is therefore readily available. […] A screening system based on the measurement of the proteolytic activity of MMP-2 was developed to analyse the inhibitory effects of the various inhibitors described in Table 1.
To this end, human dermal fibroblasts were obtained and maintained in culture using standard methods. The cell-free culture supernatant containing the secreted pro-MMP-2 was treated with trypsin. The trypsin was inactivated with the specific active-site serine proteinase inhibitor Nα-p-tosyl-L-lysine-chloromethylketone (TLCK), and the active MMP-2 was partially purified by gel filtration on Sepharose 4B. The isolated MMP-2 was identified and characterized by the use of a commercially available immunoassay.
A simple nonradioactive assay was developed to measure MMP-2 activity using gelatin as a substrate that allows both a large number of samples to be analysed in parallel and to generate kinetic data. Partially purified MMP-2 was incubated with a suitable dilution of gelatin under standardized conditions (time, buffer, pH, temperature, inhibitor, additives), and uncleaved gelatin was separated from degradation products by suction filtration through a nitrocellulose filter. High-molecular-weight gelatin is thereby bound to the nitrocellulose filter, and the low-molecular-weight gelatin-derived peptides pass through it. The nitrocellulose-bound gelatin can be stained with Ponceau S or Commassie Brilliant Blue protein stains, and the degree of staining quantified densitometrically using a commercially available electrophoresis gel documentation system supported by dedicated analytical software. The nitrocellulose filtration is conducted using a commercially available dot- or slot-blotting apparatus.
The gelatinase assay described here has been validated by comparison with results obtained with an established collagenase assay using radioactive or fluorescently labeled collagen as substrate.
(§1) The enzymatic cleavage of commercially available synthetic internally quenched fluorigenic peptide substrates such as 7-methylcoumarin-4-yl-acetyl-prolyleucyl-glycyl-leucyl-(dinitrophenyl-L-α,β-diaminopropionyl)-alanyl-arginylamide (Mca-Pro-Leu-Gly-Leu-Dap(Dnp)-Ala-Arg-NH2) at the scissile -Gly-Leu-peptide bond separates the fluorescent Mca group from the dinitrophenol quencher, resulting in a strong linear increase in fluorescence intensity that can be readily measured in a fluorimeter (λexitation328 nm, λemission 393 nm) over the first few minutes of the reaction. The specificity of the assay for matrix metalloproteinases is provided by the type I collagen-derived sequence -Pro-Leu-Gly-Leu- in the synthetic substrate, as well as by the incubation conditions. To test the efficacy of the synthetic collagenase/MMP inhibitors, the residual enzymatic activity remaining after an incubation of enzyme plus different amounts of inhibitor is measured at a fixed enzyme and substrate concentration. For each inhibitor, three test series at different fixed substrate concentrations were carried out. From the time-dependent increase in fluorescence intensity measured, the velocity (v) of the enzymatic activity can be calculated as increase in arbitrary fluorescence intensity units per minute. The inhibition constant Ki is calculated graphically by the method of Dixon (1953) by plotting the reciprocal of the reaction velocity 1/v on the ordinate, and the inhibitor concentration on the abscissa. The x-intercept of the linear plot is defined as minus K1 value.
1984 μl assay buffer (100 mM Tris-HCl pH 7,5, 100 mM NaCl, 10 mM CaCl2, 0,05% Brij 35) • 2 μl inhibitor dissolved in DMSO, or DMSO alone as a solvent control • 4 μl enzyme (MMP-2, MMP-9, or the catalytic domain of MMP-8) • 10 μl Mca-Pro-Leu-Gly-Leu-Dap(Dnp)-Ala-Arg-NH2 in DMSO Method • 1. […]

[2] = target: T2, catalytic domain of human matrix metalloproteinase-8 (MMP-8; neutrophil collagenase) (Homo sapiens, UniProt P22894); assay: Inhibition of catalytic domain of human MMP-8, fluorimetric assay, Dixon plot; conditions: recombinant catalytic domain, Mca-Pro-Leu-Gly-Leu-Dap(Dnp)-Ala-Arg-NH2 substrate
T2 construct: express heterologously only the catalytic domain, rather than the entire MMP-8, in Escherichia coli; made in house; host or cells: Escherichia coli
T2 sequence (P22894 100-262 limits assumed): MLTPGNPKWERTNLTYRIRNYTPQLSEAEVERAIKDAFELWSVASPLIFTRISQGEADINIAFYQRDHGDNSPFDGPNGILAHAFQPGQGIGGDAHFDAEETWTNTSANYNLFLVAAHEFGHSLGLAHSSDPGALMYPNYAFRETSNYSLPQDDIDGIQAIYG
Description: The catalytic domain of MMP-8 was chosen as a further test enzyme because of its high stability and constitutive activity, obviating the need for enzymatic or chemical activation, which is a well-known source of error, e.g. the commonly used organomercurial compounds used to activate pro-MMPs may interfere in subsequent assays or affect the activity of the enzyme, leading to erroneous interpretation of results. The cloning strategy was designed to express heterologously only the catalytic domain, rather than the entire MMP-8, in Escherichia coli. With the so-constructed expressed catalytic domain, we obtained a stable enzymatically active, highly pure enzyme that is well suited for routine investigation of the efficacy of the synthetic inhibitors and provides highly reproducible test results.
The cloning and expression of the recombinant catalytic domain of MMP-8 follows the protocol developed by Schnierer et al. (Schnierer, S., Kleine, T., Gote, T., Hilleman, A., Knäuper, V., and Tschesche, H., 1993, The recombinant catalytic domain of human neutrophil collagenase lacks type I collagen substrate specificity, Biochem. Biophys. Res. Commun. 191, 319-326).
as §1
(§2) 1984 μl assay buffer (100 mM Tris-HCl pH 7,5, 100 mM NaCl, 10 mM CaCl2, 0,05% Brij 35) • 2 μl inhibitor dissolved in DMSO, or DMSO alone as a solvent control • 4 μl enzyme (MMP-2, MMP-9, or the catalytic domain of MMP-8) • 10 μl Mca-Pro-Leu-Gly-Leu-Dap(Dnp)-Ala-Arg-NH2 in DMSO Method • 1. Incubate buffer, enzyme, and inhibitor for 5 min at room temperature, with stirring. • 2. Start the reaction by adding 10 μl substrate in DMSO • 3. Record the increase in fluorescence intensity over 2 min. Confirmation of the Inhibitory Activity by Protein Zymographic Analysis

[3] = target: Clostridium histolyticum collagenase (EC 3.4.24.3); assay: Inhibition of Clostridium histolyticum collagenase, spectrophotometric FALGPA assay; conditions: chromogenic substrate FALGPA; read-out: C. histolyticum (50% inhibition)
Description: The activity of Clostidium histolyticum collagenase may be readily determined by a simple spectrophotometric assay using the synthetic chromogenic peptide substrate N-(3-[2-furyl]acryloyi)-leucine-glycine-proline-alanine (FALGPA; Van Hart, H. E. and Steinbrink, D. R. 1981, Anal. Biochem. 113, 356). The degree of inhibition of the degradation of this chromogenic substrate by the addition of the various test substances described in Table 1 may be easily quantified. The enzyme and substrate are commercially available.

[4] = target: T3, human matrix metalloproteinase-9 (MMP-9; gelatinase B) (Homo sapiens, UniProt P14780); assay: Inhibition of human matrix metalloproteinase-9 (gelatinase B); conditions: trypsin-activated native MMP-9 from human buffy coat; read-out: MMP-9 (50% inhibition)
T3 construct: from tissue; host or cells: human buffy coat (blood leukocytes)
T3 sequence (P14780 107-707 limits assumed): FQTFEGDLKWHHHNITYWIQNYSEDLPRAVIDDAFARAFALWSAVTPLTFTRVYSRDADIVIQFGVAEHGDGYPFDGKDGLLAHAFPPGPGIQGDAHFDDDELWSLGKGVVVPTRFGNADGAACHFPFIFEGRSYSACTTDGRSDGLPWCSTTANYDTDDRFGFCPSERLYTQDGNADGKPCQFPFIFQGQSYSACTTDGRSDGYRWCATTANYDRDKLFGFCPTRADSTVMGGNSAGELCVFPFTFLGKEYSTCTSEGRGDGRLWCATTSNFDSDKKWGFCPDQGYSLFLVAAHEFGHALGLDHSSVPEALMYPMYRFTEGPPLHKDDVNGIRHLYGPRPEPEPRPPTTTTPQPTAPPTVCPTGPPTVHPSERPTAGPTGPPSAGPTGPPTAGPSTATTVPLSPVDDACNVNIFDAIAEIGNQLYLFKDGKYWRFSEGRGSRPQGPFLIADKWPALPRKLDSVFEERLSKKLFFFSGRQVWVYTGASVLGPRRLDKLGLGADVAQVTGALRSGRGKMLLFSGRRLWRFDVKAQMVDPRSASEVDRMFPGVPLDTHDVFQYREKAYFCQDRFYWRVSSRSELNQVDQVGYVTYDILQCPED
Description: Native MMP-9 was reproducibly obtained with reasonable yield and purity from human buffy coat. Buffy coat, to which was added an appropriate volume of 10% (v/v) Triton-X-100 to obtain a final concentration of 0,4% detergent, was shaken on ice for 30 min; then, one volume of twofold-concentrated binding buffer (40 mM Tris-HCl pH 7,5, 10 mM CaCl2, 1 M NaCl, 0,2% (v/v) Triton X-100 was added and the mixture shaken on ice for a further 30 min.
The mixture was then centrifuged for 15 min at 16,000 rpm (30,590×g) in a Kendro SS-34 rotor at 4° C. and the resulting supernatant filtered over glass wool. The filtrate was incubated batchwise with gelatin-agarose equilibrated in binding buffer for 1 h on ice with continuous shaking The MMP-9-bound gelatin-agarose was then loaded into a chromatographic tube and the column washed with at least ten bed volumes of binding buffer, or until no protein was detected by absorbance at 280 nm in the wash buffer. MMP-9 was eluted from the gelatin affinity column by application of two bed volumes of binding buffer containing 5% (v/v) dimethylsulfoxide (DMSO).
The eluate was applied to a gel filtration column of Sephadex G-75 both to exchange buffer and to eliminate small amounts of contaminating MMP-2. The G-75 column was prepared and eluted with Buffer I [20 mM Tris-HCl pH 7,5, 5 mM CaCl2, 100 mM NaCl, 0,1% (v/v) Triton X-100].
The eluted MMP-9 includes the three characterized forms of the enzyme: monomer, homodimer, and heterodimer (complex with lipokalin). The purity of MMP-9 was estimated to be ca. 90%, with the remaining contaminating protein being fibronectin and small amounts of TIMPS.
The latent MMP-9 was activated by a 30-60 min incubation at 37° C. with 1/100 vol trypsin (10 mg ml^−1). The trypsin was subsequently inactivated by addition of the serine proteinase inhibitor phenlymethylsulfonylfluoride (PMSF) or the more specific trypsin inhibitor TLCK.
as §1
as §2, with “Confirmation of the Inhibitory Activity by Protein Zymographic Analysis” left out

IC50 [4] [µM]	SMILES	IC50 [1] [µM]	Ki [2] [µM]	IC50 [3] [µM]	MMP-8 (Ki value) [2]
–	CC(S)Cn1c(=O)[nH]c(=O)c2ccccc21 (racemic) [Example 1, (R,S)-1-(2-mercaptopropyl)-chinazolin-2,4(1H,3H)-dione]	23.3	33.3	21	–
–	CC(CS)Cn1c(=O)[nH]c2ccccc2c1=O (racemic) [Example 19, (R,S)-3-[3-(2-methyl)-mercaptopropyl]chinazolin-2,4(1H,3H)-dione]	7.1	3	–	–
–	CC(C)(S)Cn1c(=O)[nH]c(=O)c2ccccc21 [Example 2, 1-(2-mercapto-2-methylpropyl)-chinazolin-2,4(1H,3H)-dione]	143	–	–	negative
–	Cn1c(=O)c2ccccc2n(CCS)c1=O [Example 6, 1-(2-mercaptoethyl)-3-methylchinazolin-2,4(1H,3H)-dione]	97.1	–	13.1	negative
–	CCn1c(=O)c2ccccc2n(CCS)c1=O [Example 8, 3-ethyl-1-(2-mercaptoethyl)-chinazolin-2,4(1H,3H)-dione]	–	–	39.4	negative
43.4	CCn1c(=O)c2ccccc2n(CCCS)c1=O [Example 9, 3-ethyl-1-(3-mercaptoprop-1-yl)-chinazolin-2,4(1H,3H)-dione]	13.9	–	–	–
–	COc1cc2c(=O)n(C)c(=O)n(CCS)c2cc1OC [Example 10, 6,7-dimethoxy-1-(2-mercaptoethyl)-3-methyl-chinazolin-2,4(1H,3H)-dione]	6.3	–	31.5	–
–	O=c1c2ccccc2n(CCS)c(=O)n1Cc1ccccc1 [Example 11, 3-benzyl-1-(2-mercaptoethyl)-chinazolin-2,4(1H,3H)-dione]	–	33.3	22.4	–
–	O=c1[nH]c2ccccc2c(=O)n1CCCCCS [Example 13, 3-(5-mercaptopent-1-yl)-chinazolin-2,4(1H,3H)-dione]	–	20	–	–
71.4	Cn1c(=O)c2ccccc2n(CCCSCC(=O)NO)c1=O [Example 20, N-hydroxy-2-[3-(methyl-2,4-dioxo-3,4-dihydro-2H-chinazolin-1-yl)-propylsulfanyl]acetamide]	–	–	–	–
